The text below walks through data of patent publication US20190274948A1, “PREBIOTIC COSMETIC COMPOSITIONS AND USE OF THE PREBIOTIC COSMETIC COMPOSITIONS” (Natura Cosméticos S.A., priority 2016, published 2019).

Where two headings read alike, the source gives them in different places.

The test system of assay [1] is tested skin-dwelling micro-organisms. Kind of assay: Prebiotic activity on panel of beneficial and undesirable skin micro-organisms. Type of assay: cell-based. The note with it: FIG. 1. Here is the method:
(§1) When a concentration of 10^4 UFC/ml was reached, the micro-organisms were transferred to a minimal carbon support medium that provided the conditions required for micro-organism replication.
(§2) Each active ingredient in the compositions addressed by this invention was added to the culture medium and cultivated. Should any increased count be noted, the ingredient would be considered as having prebiotic activity.
(§3) The results of each assay were submitted to statistical analysis. The active ingredients used in the prebiotic cosmetic compositions addressed by this invention were tested on different micro-organisms.
(§4) The beneficial micro-organisms assayed were: Staphylococcus epidermidis, Staphylococcus xylosus, Staphylococcus warneri, Staphylococcus captis and Corynebacterium xerosis.
The undesirable micro-organisms assayed were: Staphylococcus aureus, Corynebacterium striatum, Corynebacterium jeikeium, Propioniumbacteria acnes and Candida albicans.

The test system of assay [2] is Staphylococcus epidermidis. Kind of assay: Prebiotic activity: growth in minimal carbon support medium. In kind it is cell-based. The conditions noted are these: 0.5%. As to the method: as §1, §2, §3, §4
In the next assay the test system is Staphylococcus xylosus. The assay is described as above. In kind it is cell-based. Here is the method: as §1, §2, §3, §4
The subject of another assay is elastin. Briefly: Elastin synthesis in human fibroblast cultures. Type of assay: cell-based. The note with it: 48 hours, vs Baseline Control. Here is the method: Human fibroblast cultures were incubated for 48 hours with the product.
A further assay deals with IL-6. Kind of assay: IL-6 synthesis in human fibroblast cultures stimulated with PMA/LPS. Type of assay: cell-based. The note with it: vs PMA/LPS Control.
Another assay has as its system IL-8. Briefly: IL-8 synthesis in human fibroblast cultures stimulated with LPS. In kind it is cell-based. The note with it: 3.12% (w/v); vs LPS Control.
The next assay deals with IL-10. Kind of assay: IL-10 synthesis in human fibroblast cultures stimulated with PMA/LPS. The note with it: concentration not given; vs PMA/LPS Control. In kind it is cell-based.
In another assay the test system is MMP-1. Kind of assay: MMP-1 synthesis in human fibroblast cultures stimulated with LPS. In kind it is cell-based. The note with it: 6.25% (p/v); vs PMA/LPS Control.
In another assay the test system is human fibroblasts. Briefly: Cell proliferation in human fibroblast cultures. In kind it is cell-based. The note with it: for increase of proliferation: vs Control group. An excerpt: As a positive assay control, human fibroblasts were cultivated in a culture medium supplemented with 2% of fetal bovine serum.
The test system of a further assay is GAG. The conditions noted are these: 72 hours.

As to inulin, the “selectivity for any of the tested skin-dwelling micro-organisms” value in assay [1] was “did not present selectivity”.
Consider `OC[C@H]1O[C@H](O[C@H]2O[C@H](CO)[C@@H](O)[C@H](O)[C@H]2O)[C@H](O)[C@@H](O)[C@@H]1O` [trehalose], for which, in [2], the “growth of S. epidermidis” value was “selectively favored the growth”. Further, in the assay on Staphylococcus xylosus, the “growth of S. xylosus” value was “selectively favored the growth”. Also, the “increase of elastin synthesis” value was determined as 75% with elastin (1.56% (w/v)), 68% with elastin (3.12% (w/v)) and 60% in the assay on elastin (6.25% (w/v)). In addition, the results for the “drop of IL-6 synthesis” value in the assay with IL-6 (3.12% (w/v)) and with IL-6 (6.25% (w/v)) were 19% and 78%, respectively. Moreover, in the assay on IL-8, the “reduction of IL-8 synthesis” value worked out at 16%. Besides, the “reductions of IL-10 synthesis” value in the assay on IL-10 is reported as “up to 31%”. Also, the “reduction in MMP-1 synthesis” value with MMP-1 was 20%. In addition, the increase of proliferation in the assay with human fibroblasts (1.563% (w/v)) was determined as 33%; in the assay with human fibroblasts (6.250% (w/v)) it was 12.25%. In addition, the “Fibroblast proliferation, Increase” value with human fibroblasts (Table 1) is on record as “of 33%”. Besides, the “lowering of GAG levels” value was 23% in the assay on GAG (3.12% (w/v)) and 59% with GAG (6.25% (w/v)).
